# Assay results published in PubChem BioAssay AID602427 (Sanford-Burnham Center for Chemical Genomics, 2012).
# Activity calls are given as the source filed them.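 The calls were made as follows: active = EC50 at or below 20 micromolar; inactive = the rest.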
# Target: Neurotensin receptor type 1 (Homo sapiens) (UniProt P30989)
# Test: NTR1 agonists, beta-arrestin recruitment, SAR follow-up, orthogonal assay for NTR1 agonist project, cell-based, luminescence, CHO-K1 NTSR1 PathHunter (AID 602427);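 also: agonist potency for NTR1 activation where higher luminescence means more arrestin recruitment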
# Chain of Neurotensin receptor type 1 (Homo sapiens) (P30989 whole entry, looked up): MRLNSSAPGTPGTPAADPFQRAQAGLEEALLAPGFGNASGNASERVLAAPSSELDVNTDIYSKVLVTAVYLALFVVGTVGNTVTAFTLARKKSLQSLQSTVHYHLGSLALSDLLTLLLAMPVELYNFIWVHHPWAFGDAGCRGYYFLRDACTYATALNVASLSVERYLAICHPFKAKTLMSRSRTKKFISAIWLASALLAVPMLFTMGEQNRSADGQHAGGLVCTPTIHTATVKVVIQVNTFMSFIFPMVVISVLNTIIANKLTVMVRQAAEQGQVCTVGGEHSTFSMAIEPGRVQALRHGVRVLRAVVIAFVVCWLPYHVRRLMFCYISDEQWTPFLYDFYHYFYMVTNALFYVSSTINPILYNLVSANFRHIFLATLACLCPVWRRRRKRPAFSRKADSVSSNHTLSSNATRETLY
row,EC50,Compound
1,> 33 µM (inactive),CN(C)S(=O)(=O)c1ccc(-c2csc(N/N=C/c3ccccc3)n2)cc1
2,> 33 µM (inactive),CC(=O)c1ccc(N2CCN(c3ncnc4c3cnn4-c3ccc(C)cc3C)CC2)cc1
3,> 33 µM (inactive),O=S(=O)(c1ccc(-c2csc(N/N=C/c3ccco3)n2)cc1)N1CCOCC1
4,3.8 µM,COc1cc2nc(C3CC3)nc(N3CCN(c4ccccc4OC)CC3)c2cc1OC
5,> 33 µM (inactive),Cc1ccc(Cn2cc3c(-c4ccc(F)cc4)nnc-3c3ccccc32)cc1
6,> 33 µM (inactive),COc1ccc(Cn2c(SCc3cccc(C(F)(F)F)c3)nc3cc(OC)c(OC)cc3c2=N)cc1Cl
7,> 33 µM (inactive),COc1cc2nc(Cc3ccccc3)nc(N3CCN(c4ccccc4OC)CC3)c2cc1OC
8,> 33 µM (inactive),Cc1ccc(-c2nnc3c4cc5c(cc4n(Cc4ccc(F)cc4)cc2-3)OCO5)cc1
9,> 33 µM (inactive),COc1cccc(N2CCN(c3ncnc4c3cnn4-c3ccc(C)cc3C)CC2)c1
10,> 33 µM (inactive),COc1ccccc1-c1cc(C(=O)O)nn1-c1ccnc2cc(Cl)ccc12
11,> 33 µM (inactive),COc1ccc(N2CCN(c3nc(C4CCC4)nc4cc(OC)c(OC)cc34)CC2)cc1
12,> 33 µM (inactive),Cc1ccc(-n2ncc3c(N4CCN(c5ccccc5)CC4)ncnc32)c(C)c1
13,> 33 µM (inactive),Cc1ccc(-n2ncc3c(N4CCN(c5ccc(F)cc5)CC4)ncnc32)c(C)c1
14,> 33 µM (inactive),Cc1cccc(C)c1-c1nc(C(=O)N[C@@H](CC(C)C)C(=O)O)cn1-c1ccnc2cc(Cl)ccc12
15,> 33 µM (inactive),COc1cccc(OC)c1-c1nc(C(=O)O)cn1-c1ccncc1
16,inactive,COc1cc2c3nnc(-c4ccc(C)cc4)c-3cn(Cc3ccc(F)cc3)c2cc1OC
17,> 33 µM (inactive),CN(C)S(=O)(=O)c1ccc(-c2csc(N/N=C/c3ccc(C(C)(C)C)cc3)n2)cc1
18,> 33 µM (inactive),COc1ccc(C(=O)c2cn(Cc3ccccc3)c3ccccc3c2=O)cc1
19,> 33 µM (inactive),CCOC(=O)c1cc(-c2c(OC)cccc2OC)n(-c2ccnc3cc(Cl)ccc23)n1

row,EC50,Compound
1,> 33 µM (inactive),COc1cc2c3nnc(-c4ccc(C)cc4)c-3cn(Cc3ccc(C)cc3)c2cc1OC
2,inactive,CCOc1ccc(-c2nnc3c4cc(OC)c(OC)cc4n(Cc4ccccc4)cc2-3)cc1
3,> 33 µM (inactive),COc1ccc(-c2nnc3c4ccccc4n(Cc4ccncc4)cc2-3)cc1
4,> 33 µM (inactive),COc1ccccc1N1CCN(c2nc(C3CCC3)nc3cc4c(cc23)OCO4)CC1
5,> 33 µM (inactive),CCn1cc2c(-c3ccc(OC)cc3)nnc-2c2ccccc21
6,> 33 µM (inactive),Clc1cccc(-n2ncc3c(N4CCN(c5ccccc5)CC4)ncnc32)c1
7,> 33 µM (inactive),COc1cccc(OC)c1-c1cc(C(=O)NC2(C(=O)O)C3CC4CC(C3)CC2C4)nn1-c1ccnc2cc(Cl)ccc12 (stereo not drawn)
8,> 33 µM (inactive),c1ccc(N2CCN(c3ncnc4c3cnn4-c3ccccc3)CC2)cc1
9,> 33 µM (inactive),COc1ccc(/C=N/Nc2nc(-c3ccc(S(=O)(=O)N(C)C)cc3)cs2)cc1OC
10,> 33 µM (inactive),COc1cccc(OC)c1-c1cc(C(=O)N[C@@H](CC(C)C)C(=O)OC(C)(C)C)nn1-c1ccnc2cc(Cl)ccc12
11,> 33 µM (inactive),COc1ccc2c(N3CCN(c4ccccc4OC)CC3)nc(C3CCC3)nc2c1
12,> 33 µM (inactive),COc1ccccc1-c1nc(C(=O)N[C@@H](CC(C)C)C(=O)O)cn1-c1ccnc2ccccc12
13,> 33 µM (inactive),COc1ccc(Cn2cc3c(-c4ccc(F)cc4)nnc-3c3cc(OC)c(OC)cc32)cc1
14,> 33 µM (inactive),COc1ccc(Cn2cc(C(=O)c3ccc(F)cc3)c(=O)c3cc(OC)c(OC)cc32)cc1
15,> 33 µM (inactive),COc1ccc(C(=O)c2cn(Cc3ccc(C)cc3)c3ccccc3c2=O)cc1
16,> 33 µM (inactive),COc1cc2c3nnc(-c4ccc(F)cc4)c-3cn(Cc3cccnc3)c2cc1OC
17,> 33 µM (inactive),COc1cc2c3nnc(-c4ccccc4)c-3cn(Cc3ccc(F)cc3)c2cc1OC
18,> 33 µM (inactive),CCn1cc2c(-c3ccc(F)cc3)nnc-2c2cc(OC)c(OC)cc21
19,> 33 µM (inactive),CCn1cc(C(=O)c2ccc(OC)cc2)c(=O)c2ccccc21
